Experimental data as given in US11319330B2, “Tricyclic furan-substituted piperidinedione compound” (MEDSHINE DISCOVERY INC., priority 2018, dated 2022).
Counter-ions that a name gives are not always drawn.

Key:
[1] = Pharmacokinetic properties of test compound in mice (oral); type: in vivo, C57BL male mice; details: mouse; for oral plasma systemic exposure (AUC0-inf), in words / pharmacokinetic properties in rodent mice, in words: oral
Excerpt: In this study, C57BL male mice were selected as the test animals, and the LC/MS/MS method was used to quantitatively determine the drug concentration in the plasma of the test compound and the reference compound administered orally to evaluate the pharmacokinetic profile of the test compound in mice.
[…] (C57) mice (male, 20-30 g, 7-10 weeks old, from Beijing Vital River or Shanghai SLAC).
A clear solution or suspension of the test compound was administrated to C57 mice (fasted overnight) by oral gavage. Blood was collected from jugular vein at pre-dose and 0.5, 1, 2, 4, 6, 8, 24 hours post-dose, the collected blood samples were placed in an anticoagulant tube (Jiangsu Kangjian Medical Co., Ltd.) supplemented with EDTA-K2, and the mixture was vortexed and centrifuged at 13000 rpm for 10 minutes. The LC-MS/MS method was used to determine the plasma concentration, and the relevant pharmacokinetic parameters were calculated using the non-compartmental model linear logarithmic trapezoidal method by WinNonlin™ Version 6.3 (Pharsight, Mountain View, Calif.).

OCI-LY10 = assay: Anti-proliferative effect in lymphoma cell line OCI-LY10 (CellTiter-Glo); type: cell-based; details: Homo sapiens, OCI-Ly10, 120 h; incubate with the compound for 5 days
Method: Experiment object: In this experiment, the inhibitory effects of the test compounds on cell proliferation in the diffuse large B-cell lymphoma cell lines OCI-LY10 and DOHH2, and the mantle cell lymphoma cell line Mino were tested.
The tumor cell lines were cultured in an incubator at 37° C. and 5% CO2 under the above-mentioned culture conditions. The cells were passaged regularly, and cells in the logarithmic growth phase were taken for plating.
(3). 90 μL of cell suspension was added to each well of the culture plate as shown in the table above, and cell-free culture solution was added to the blank control well.
(4). The culture plates were incubated overnight at 37° C., 5% CO2, and 100% relative humidity in an incubator.
A 400× compound working solution was prepared. The compound was gradually diluted with DMSO from the highest concentration to the lowest concentration. The compound was freshly formulated when use every time.
(1). Formulation of 10× compound working solution: 76 μL of cell culture solution was added to a 96-well plate with a V-shaped bottom, and 4 μL of the compound from a 200× compound solution plate was pipetted and added to the cell culture solution in the 96-well plate. 4 μL of DMSO was added to the vehicle control and blank control. After adding the compound or DMSO, a multi-channel pipette was used for mixing well. 78 μL of cell culture solution was added to a 96-well plate with a V-shaped bottom, and 2 μL of the compound from the 400× compound storage solution was pipetted and added to the cell culture solution in the 96-well plate. 2 μL of DMSO was added to the vehicle control and blank control. After adding the compound or DMSO, a multi-channel pipette was used for mixing well.
(2). Dosing: 10 μL of the 10× compound working solution was taken and added to the cell culture plate. 10 μL mixture of DMSO and cell culture solution was added to the vehicle control and blank control.
(3). The 96-well cell plates were placed back into the incubator to culture OCI-LY10 (5 times dilution, incubate with the compound for 5 days), DOHH2 (3 times dilution, incubate with the compound for 4 days), Mino (3 times dilution, incubate with the compound for 4 days).
The following steps followed the instructions of Promega CellTiter-Glo Luminescence Cell Viability Detection Kit (Promega-G7573).
(6). 50 μL (equal to half the volume of cell culture solution in each well) of CellTiter-Glo working solution was added into each well. The cell plates were wrapped with aluminum foil to protect the cell plate from light.
(9). The luminous signal was detected on the 2104 EnVision plate reader.
The following formula was used to calculate the inhibition rate (IR) of the test compound: IR (%)=(RLU of vehicle control−RLU of compound)/(RLU vehicle control−RLU blank control)*100%. […]

DOHH2 = assay: Anti-proliferative effect in lymphoma cell line DOHH2 (CellTiter-Glo); type: cell-based; details: Homo sapiens, DOHH-2, 96 h; incubate with the compound for 4 days
Method: (§1) Experiment object: In this experiment, the inhibitory effects of the test compounds on cell proliferation in the diffuse large B-cell lymphoma cell lines OCI-LY10 and DOHH2, and the mantle cell lymphoma cell line Mino were tested. The tumor cell lines were cultured in an incubator at 37° C. and 5% CO2 under the above-mentioned culture conditions. The cells were passaged regularly, and cells in the logarithmic growth phase were taken for plating. (3). 90 μL of cell suspension was added to each well of the culture plate as shown in the table above, and cell-free culture solution was added to the blank control well. (4). The culture plates were incubated overnight at 37° C., 5% CO2, and 100% relative humidity in an incubator. A 400× compound working solution was prepared. The compound was gradually diluted with DMSO from the highest concentration to the lowest concentration. […] The following steps followed the instructions of Promega CellTiter-Glo Luminescence Cell Viability Detection Kit (Promega-G7573). […] The luminous signal was detected on the 2104 EnVision plate reader. […] The inhibition rate of different concentrations of the compound was calculated in Excel, and then GraphPad Prism software was used to draw the inhibition curve and calculate the relevant parameters, including the minimum inhibition rate, the maximum inhibition rate and IC50.

Mino = assay: Anti-proliferative effect in lymphoma cell line Mino (CellTiter-Glo); type: cell-based; details: Homo sapiens, 96 h, incubate with the compound for 4 days
Method: as §1

[2] = test system: human lymphoma OCI-LY10 cells; assay: In vivo pharmacodynamic study in subcutaneous xenograft tumor CB-17 SCID model of human lymphoma OCI-LY10 cells; set-up: species or system CB-17 SCID mouse
Method: Cells culture: Human lymphoma OCI-LY10 cells (National Cancer Institute) were cultured in a monolayer method in vitro (culture conditions: RPMI-1640 medium with 10% fetal bovine serum, 100 U/mL penicillin and 100 μg/mL streptomycin; 37° C., 5% CO2 incubator). Pancreatin-EDTA was used twice a week for conventional digestion and passage. When a cell saturation of 80%-90% and the required cell number were achieved, the cells were collected, counted and seeded. Animal: CB-17 SCID mouse, female, 6-8 weeks old, weighing 18-22 grams. 0.2 mL (10×10^6 cells) of OCI-LY10 cells (with matrigel in a volume ratio of 1:1) were subcutaneously inoculated on the right back of each mouse. The grouping and administration were started when the average tumor volume reached about 139 mm^3. One dosing cycle was seven days, and the compound was administered once a day with an interval of 24 hours. The test compound was administered orally for a total of four cycles. The dose of the test compound WX001 was 60 mg/kg. The tumor volume was measured twice a week with a two-dimensional caliper, expressed in cubic millimeters, and calculated by the following formula: V=0.5a×b^2, in which a and b were the long diameter and short diameter of the tumor, respectively. The anti-tumor efficacy was determined by dividing the average increase of tumor volume of animals treated with the compound by that of untreated animals. TGI: Tumor Growth Inhibition. TGI (%)=[1−(average tumor volume at the end of administration in a treatment group−average tumor volume at the beginning of administration in this treatment group)/(average tumor volume at the end of administration in the solvent control group−average tumor volume at the beginning of administration in the solvent control group)]×100%.

[3] = 60 mg/kg oral once a day, Day 27

| oral plasma systemic exposure (AUC0-inf), in words [1] | pharmacokinetic properties in rodent mice, in words [1] | Area under the concentration-time curve (0-inf) ([1]; oral 10 mg/kg, plasma) [µM·h] | IC50 (OCI-LY10) [nM] | SMILES | other results |
| --- | --- | --- | --- | --- | --- |
| higher | better pharmacokinetic properties | 7.42 | – | CN(C)CCOc1ccc2cc3occ(C4CCC(=O)NC4=O)c3cc2c1 (stereo not drawn) [Hydrochloride salt of WX022] | – |
| – | – | – | 28 | O=C1CCC(c2coc3cc4ccccc4cc23)C(=O)N1 (stereo not drawn) [WX001] | IC50 (DOHH2): 63 nM; IC50 (Mino): 72 nM; Tumor volume (Day 0) ([2]; 60 mg/kg oral once a day, Day 0, start of administration): 139 mm^3; TGI (Day 27) [2, 3]: 105.5%; Tumor volume (Day 27) [2, 3]: 87 mm^3; tumor-shrinking effect, in words ([2]; human lymphoma OCI-LY10 model): significant tumor-shrinking effect |
| – | – | – | 86 | O=C1CCC(c2coc3cc4c(cc23)OCO4)C(=O)N1 (stereo not drawn) [WX002] | – |
| – | – | – | 83 | O=C1CCC(c2coc3cc4c(cc23)OCCN4)C(=O)N1 (stereo not drawn) [WX003] | – |
| – | – | – | 6 | Cc1nc2cc3occ(C4CCC(=O)NC4=O)c3cc2o1 (stereo not drawn) [WX005] | – |
| higher | better pharmacokinetic properties | 13.29 | – | O=C1CCC(c2coc3cc4ccc(OCCN5CCOCC5)cc4cc23)C(=O)N1 (stereo not drawn) [WX015] | Peak concentration ([1]; oral 10 mg/kg, plasma): 5.14 µM; Time to peak ([1]; oral 10 mg/kg, plasma): 0.50 h |
